Data as given in patent publication US20230078764A1 (Yumanity Therapeutics, Inc., priority 2019, published 2023).
pIC50: −log10 of the molar value. Like-named read-outs stand apart in the source and are kept apart here.

Tests used:
human SCD5 = target: T1, human SCD5 (Homo sapiens, UniProt Q86SK9); experiment: Growth inhibition of yeast strain expressing human SCD5 as sole desaturase (OLE1 deleted), OD600 readout; type: cell-based
T1 construct: expressed in transfected cells; host or cells: yeast strain with OLE1 deleted, plasmid-borne human SCD5 (selected in SD-Ura)
T1 sequence (Q86SK9 1-330): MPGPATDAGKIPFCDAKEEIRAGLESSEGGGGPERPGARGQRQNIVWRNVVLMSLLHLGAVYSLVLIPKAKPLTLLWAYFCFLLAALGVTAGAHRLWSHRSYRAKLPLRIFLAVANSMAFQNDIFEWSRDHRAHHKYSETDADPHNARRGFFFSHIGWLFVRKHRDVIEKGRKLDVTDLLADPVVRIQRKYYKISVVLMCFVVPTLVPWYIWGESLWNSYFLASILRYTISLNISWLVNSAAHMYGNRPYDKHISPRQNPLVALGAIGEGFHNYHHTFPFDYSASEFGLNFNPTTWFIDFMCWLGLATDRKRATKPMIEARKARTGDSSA

human SCD1 = target: T2, human SCD1 (Homo sapiens, UniProt O00767); experiment: Growth inhibition of yeast strain expressing human SCD1 as sole desaturase (OLE1 deleted), OD600 readout; type: cell-based
T2 construct: expressed in transfected cells; host or cells: yeast strain with OLE1 deleted, plasmid-borne human SCD1 (selected in SD-Ura)
T2 sequence (O00767 1-359): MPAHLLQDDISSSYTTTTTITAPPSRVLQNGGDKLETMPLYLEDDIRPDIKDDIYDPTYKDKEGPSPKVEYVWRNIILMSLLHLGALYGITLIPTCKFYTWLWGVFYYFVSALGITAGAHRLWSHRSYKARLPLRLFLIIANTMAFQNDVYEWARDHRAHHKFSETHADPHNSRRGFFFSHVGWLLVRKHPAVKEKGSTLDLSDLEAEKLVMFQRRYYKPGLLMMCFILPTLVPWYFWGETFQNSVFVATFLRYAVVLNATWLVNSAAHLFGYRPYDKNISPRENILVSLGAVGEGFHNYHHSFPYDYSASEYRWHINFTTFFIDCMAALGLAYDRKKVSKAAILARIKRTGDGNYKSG

[1] = yeast strain expressing human SCD5 as sole desaturase, growth (OD600) after 40 h at 30° C., read-out: SCD5 IC50
[2] = yeast strain expressing human SCD1 as sole desaturase, growth (OD600) after 40 h at 30° C., read-out: SCD1 IC50

SMILES | pIC50 (human SCD5; [1]) | pIC50 (human SCD1; [2]) | pIC50 (human SCD5; SCD5 IC50) | pIC50 (human SCD1; SCD1 IC50)
CCn1cc(C(=O)Nc2ccc(Cc3cccc(Cl)c3)cn2)cn1 [Compound 373] | 7.52 | 6.52 | – | –
N#Cc1ncc(C(=O)Nc2ccc(Cc3cc(F)cc(F)c3)cn2)cc1Cl [Compound 608] | 7.57 | 6.04 | – | –
Cn1ccc(C(=O)Nc2ccc(Cc3cccc(Cl)c3)cn2)n1 [Compound 91, N-(5-(3-chlorobenzyl)pyridin-2-yl)-1-methyl-1H-pyrazole-3-carboxamide] | 8.00 | 8.00 | – | –
Cn1cccc(C(=O)Nc2ccc(Cc3cccc(F)c3)cn2)c1=O [Compound 140, N-(5-(3-fluorobenzyl)pyridin-2-yl)-1-methyl-2-oxo-1,2-dihydropyridine-3-carboxamide] | 8.00 | 6.54 | – | –
Cn1cc(C(=O)NC2CCC(Oc3cccc(Cl)c3)CC2)ccc1=O (stereo not shown) [Compound 466] | < 4.35 | < 4.35 | – | –
Cn1nc(C(=O)Nc2ccc(Cc3cccc(Cl)c3)cn2)ccc1=O [Example 47, N-(5-(3-chlorobenzyl)pyridin-2-yl)-1-methyl-6-oxo-1,6-dihydropyridazine-3-carboxamide] | 6.89 | 5.96 | – | –
N#Cc1cnc(C(=O)Nc2ccc(Cc3ccc(F)c(F)c3)cn2)cn1 [Compound 591] | 7.74 | 5.66 | – | –
O=C(Nc1ccc(Nc2cccc(Cl)c2)cn1)c1ccc(=O)n(C2CC2)n1 [Compound 303] | 6.01 | 5.38 | – | –
Cn1nc(OC(=O)N2CCC(Oc3cccc(Cl)c3)CC2)ccc1=O [Compound 307] | 6.24 | 5.93 | – | –
Cn1cc(C(=O)Nc2ccc(Cc3cc(C(F)(F)F)ccn3)cn2)ccc1=O [Compound 279] | 5.71 | 4.67 | – | –
CN1N=C(C(=O)Nc2ccc(Cc3cc(Cl)ccc3F)nn2)CCC1=O [Compound 177, N-(6-(5-chloro-2-fluorobenzyl)pyridazin-3-yl)-1-methyl-6-oxo-1,4,5,6-tetrahydropyridazine-3-carboxamide] | 5.26 | < 4.35 | – | –
O=C(Nc1ccc(Cc2cccc(Cl)c2)cn1)c1nnc(C(F)(F)F)o1 [Compound 681] | 5.68 | < 4.35 | – | –
Cc1cnc(C(=O)Nc2ccc(Cc3ccc(F)c(Cl)c3)cn2)cn1 [Compound 138, N-(5-(3-chloro-4-fluorobenzyl)pyridin-2-yl)-5-methylpyrazine-2-carboxamide] | 7.10 | 6.26 | – | –
Cn1ccc(C(=O)Nc2ccc(Cc3ccc(F)cc3)cn2)n1 [Compound 93, N-(5-(4-fluorobenzyl)pyridin-2-yl)-1-methyl-1H-pyrazole-3-carboxamide] | 7.70 | 6.26 | – | –
Cn1cc(C(=O)Nc2ccc(Cc3cc(F)c(F)c(F)c3)cn2)ccc1=O [Compound 56, 1-methyl-6-oxo-N-(5-(3,4,5-trifluorobenzyl)pyridin-2-yl)-1,6-dihydropyridine-3-carboxamide] | – | – | 8.00 | 7.70
CN1N=C(C(=O)Nc2ccc(COc3cccc(Cl)c3)cn2)CCC1=O [Compound 261] | 7.30 | 5.85 | – | –
O=C(Nc1ccc(Cc2cccc(Cl)c2)cn1)c1ccc([C@@H](O)CO)nc1 [Compound 605] | 6.49 | 6.55 | – | –
CN1N=C(C(=O)Nc2ccc(Cc3cccc(C(F)F)c3)cn2)CCC1=O [Example 32, N-(5-(3-(difluoromethyl)benzyl)pyridin-2-yl)-1-methyl-6-oxo-1,4,5,6-tetrahydropyridazine-3-carboxamide] | 6.51 | 4.58 | – | –
Cn1nc(C(=O)Nc2ccc(CCOc3ccccc3)cn2)ccc1=O [Compound 362] | 4.84 | < 4.35 | – | –
CCn1cc(C(=O)Nc2ccc(Cc3ccc(F)c(Cl)c3)cn2)ccc1=O [Compound 82, N-(5-(3-chloro-4-fluorobenzyl)pyridin-2-yl)-1-ethyl-6-oxo-1,6-dihydropyridine-3-carboxamide] | 7.52 | < 4.35 | – | –
Cn1cc(C(=O)Nc2ccc(Cc3cc(F)cc(C#N)c3)cn2)ccc1=O [Example 25, N-(5-(3-cyano-5-fluorobenzyl)pyridin-2-yl)-1-methyl-6-oxo-1,6-dihydropyridine-3-carboxamide] | – | – | 6.28 | 5.39
Cc1cncc(Cc2ccc(NC(=O)C3=NN(C)C(=O)CC3)nc2)c1 [Compound 437] | < 4.35 | < 4.35 | – | –

SMILES | pIC50 (human SCD5; [1]) | pIC50 (human SCD1; [2]) | pIC50 (human SCD5; SCD5 IC50) | pIC50 (human SCD1; SCD1 IC50)
CC(O)c1ccc(C(=O)Nc2ccc(Cc3ccc(F)c(F)c3)cn2)nc1 (stereo not shown) [Compound 511] | 6.72 | 6.84 | – | –
Cn1nc(C(=O)Nc2ccc(Cc3ccc(F)cc3F)cn2)ccc1=O [Compound 537] | 6.31 | 4.77 | – | –
COc1cccc(Cc2ccc(NC(=O)C3=NN(C)C(=O)CC3)nn2)c1 [Compound 182, N-(6-(3-methoxybenzyl)pyridazin-3-yl)-1-methyl-6-oxo-1,4,5,6-tetrahydropyridazine-3-carboxamide] | – | < 4.35 | – | –
Cn1nc(C(=O)Nc2ccc(Oc3cccc(F)c3)cn2)ccc1=O [Compound 162, N-[5-(3-fluorophenoxy)pyridin-2-yl]-1-methyl-6-oxo-1,6-dihydropyridazine-3-carboxamide] | – | < 4.35 | – | –
CN1N=C(C(=O)Nc2ccc(Cc3cc(F)cc(C#N)c3)cn2)CCC1=O [Example 26, N-(5-(3-cyano-5-fluorobenzyl)pyridin-2-yl)-1-methyl-6-oxo-1,4,5,6-tetrahydropyridazine-3-carboxamide] | – | < 4.35 | – | –
CN1N=C(C(=O)Nc2ccc(Cc3cccc(C#N)c3)cn2)CCC1=O [Compound 8, N-(5-(3-cyanobenzyl)pyridin-2-yl)-1-methyl-6-oxo-1,4,5,6-tetrahydropyridazine-3-carboxamide] | – | < 4.35 | – | –
CN1N=C(C(=O)Nc2ccc(Cc3ccccc3)cn2)CCC1=O [Compound 13, N-(5-benzylpyridin-2-yl)-1-methyl-6-oxo-1,4,5,6-tetrahydropyridazine-3-carboxamide] | – | < 4.35 | – | –
CN1N=C(C(=O)Nc2ccc(Cc3cc(F)cc(F)c3)cn2)CCC1=O [Example 22, N-(5-(3,5-difluorobenzyl)pyridin-2-yl)-1-methyl-6-oxo-1,4,5,6-tetrahydropyridazine-3-carboxamide] | – | < 4.35 | – | –
N#Cc1ccc(C(=O)Nc2ccc(Cc3cccc(F)c3)cn2)nc1 [Compound 135, 5-cyano-N-(5-(3-fluorobenzyl)pyridin-2-yl)picolinamide] | – | 4.85 | – | –
CN1N=C(C(=O)Nc2ccc(Cc3ccc(F)cc3)cn2)CCC1=O [Example 17, N-(5-(4-fluorobenzyl)pyridin-2-yl)-1-methyl-6-oxo-1,4,5,6-tetrahydropyridazine-3-carboxamide] | – | < 4.35 | – | –
Cn1cc(C(=O)Nc2ccc(Oc3cccc(F)c3)cn2)ccc1=O [Compound 160, N-[5-(3-fluorophenoxy)pyridin-2-yl]-1-methyl-6-oxo-1,6-dihydropyridine-3-carboxamide] | – | < 4.35 | – | –
CN1N=C(c2nc3cc(Cc4cccc(Cl)c4)cnc3[nH]2)CCC1=O [Compound 255] | 5.32 | – | – | –
CN1N=C(C(=O)Nc2ccc(Cc3ccccc3)nn2)CCC1=O [Compound 253] | 5.32 | – | – | –
CN1N=C(C(=O)Nc2ccc(Cc3cccc(F)c3)nn2)CCC1=O [Compound 193, N-(6-(3-fluorobenzyl)pyridazin-3-yl)-1-methyl-6-oxo-1,4,5,6-tetrahydropyridazine-3-carboxamide] | – | < 4.35 | – | –
N#Cc1ccc(C(=O)Nc2ccc(Cc3cccc(F)c3)cn2)nc1 [Compound 142, 5-cyano-N-(5-(3-fluorobenzyl)pyridin-2-yl)picolinamide] | – | < 4.35 | – | –
Cn1cc(C(=O)Nc2ccc(COc3cccc(Cl)c3)cn2)ccc1=O [Compound 263] | – | < 4.35 | – | –
CCn1cc(C(=O)Nc2ccc(Oc3cccc(F)c3)cn2)ccc1=O [Compound 164, 1-ethyl-N-[5-(3-fluorophenoxy)pyridin-2-yl]-6-oxo-1,6-dihydropyridine-3-carboxamide] | – | < 4.35 | – | –
Cc1nnc2ccc(C(=O)Nc3ccc(Cc4cccc(F)c4)cn3)cn12 [Compound 152, N-(5-(3-fluorobenzyl)pyridin-2-yl)-3-methyl-[1,2,4]triazolo[4,3-a]pyridine-6-carboxamide] | – | < 4.35 | – | –
CN1N=C(C(=O)Nc2ccc(/C=C/c3cccc(Cl)c3)nn2)CCC1=O [Compound 418] | < 4.35 | – | – | –
CN1N=C(C(=O)Nc2ccc(Cc3ccc4c(c3)COC4)cn2)CCC1=O [Example 19, N-(5-((1,3-dihydroisobenzofuran-5-yl)methyl)pyridin-2-yl)-1-methyl-6-oxo-1,4,5,6-tetrahydropyridazine-3-carboxamide] | – | < 4.35 | – | –
Cn1nc(C(=O)Nc2cnn(Cc3cccc(Cl)c3)c2)ccc1=O [Compound 215, N-(1-(3-chlorobenzyl)-1H-pyrazol-4-yl)-1-methyl-6-oxo-1,6-dihydropyridazine-3-carboxamide] | – | 5.89 | – | –
